Assay results: patent US11076594B2, “Pyrazolone compound or salt thereof, preparation method therefor, herbicide composition and use thereof” (QINGDAO KINGAGROOT CHEMICAL COMPOUNDS CO., LTD., priority 2015, dated 2021)

What was measured:
Assay type in all cases: in vivo
Conditions in all cases: post-emergence spray at 4-5 leaf stage, 250 g/ha active ingredient with 450 kg/ha water, rated after 3 weeks in greenhouse
Indian mallow = assay: weed control effect in post-emergence stage (Table 1); set-up: key: Level 10: completely dead; Level 9: above 95% growth control rate; Level 8: above 90% growth control rate; Level 7: above 80% growth control rate; Level 6: above 70% growth control rate; Level 5: above 60% growth control rate; Level 4: above 50% growth control rate; Level 3: above 20% growth control rate; Level 2: 5%-20% growth control rate; Level 1: below 5% growth control rate
In short: (§1)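 Fresh-weight-based growth control rate was assessed 3 weeks after spraying. Test compound, dissolved in acetone, with tween 80 added and diluted in water, was sprayed onto greenhouse-grown, pot-cultured weeds and crop plants at 4-5 leaves, 2-3 weeks post-sowing.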

bidens bipinnata = assay: as above; set-up: key: Level 10: completely dead; Level 9: above 95% growth control rate; Level 8: above 90% growth control rate; Level 7: above 80% growth control rate; Level 6: above 70% growth control rate; Level 5: above 60% growth control rate; Level 4: above 50% growth control rate; Level 3: above 20% growth control rate; Level 2: 5%-20% growth control rate; Level 1: below 5% growth control rate
In short: as §1

crab grass = assay: as above; set-up: key: Level 10: completely dead; Level 9: above 95% growth control rate; Level 8: above 90% growth control rate; Level 7: above 80% growth control rate; Level 6: above 70% growth control rate; Level 5: above 60% growth control rate; Level 4: above 50% growth control rate; Level 3: above 20% growth control rate; Level 2: 5%-20% growth control rate; Level 1: below 5% growth control rate
In short: as §1

echinochloa = assay: as above; set-up: key: Level 10: completely dead; Level 9: above 95% growth control rate; Level 8: above 90% growth control rate; Level 7: above 80% growth control rate; Level 6: above 70% growth control rate; Level 5: above 60% growth control rate; Level 4: above 50% growth control rate; Level 3: above 20% growth control rate; Level 2: 5%-20% growth control rate; Level 1: below 5% growth control rate
In short: as §1

foxtail = assay: as above; set-up: key: Level 10: completely dead; Level 9: above 95% growth control rate; Level 8: above 90% growth control rate; Level 7: above 80% growth control rate; Level 6: above 70% growth control rate; Level 5: above 60% growth control rate; Level 4: above 50% growth control rate; Level 3: above 20% growth control rate; Level 2: 5%-20% growth control rate; Level 1: below 5% growth control rate
In short: as §1

rorippa indica = assay: as above; set-up: key: Level 10: completely dead; Level 9: above 95% growth control rate; Level 8: above 90% growth control rate; Level 7: above 80% growth control rate; Level 6: above 70% growth control rate; Level 5: above 60% growth control rate; Level 4: above 50% growth control rate; Level 3: above 20% growth control rate; Level 2: 5%-20% growth control rate; Level 1: below 5% growth control rate
In short: as §1

corn = assay: post-emergence stage experiment, crop (Table 1)
In short: as §1

wheat = assay: post-emergence stage experiment, crop (Table 1)
In short: as §1

rice = assay: post-emergence stage experiment, crop (Table 1)
In short: as §1

Row | SMILES | weed control effect, Indian mallow (level) (Indian mallow) | weed control effect, Bidens bipinnata (level) (bidens bipinnata) | weed control effect, Crab grass (level) (crab grass) | weed control effect, Echinochloa (level) (echinochloa) | weed control effect, Green foxtail (level) (foxtail) | weed control effect, Rorippa indica (level) (rorippa indica) | effect on crop, Corn (level) (corn) | effect on crop, Wheat (level) (wheat) | effect on crop, Rice (level) (rice)
1 | Cc1nn(C)c(OC(=O)c2cnn(C)c2)c1C(=O)c1ccc(C(F)(F)F)c(N2CCCCCC2=O)c1Cl [Compound 057] | 10 | 5 (Level 5: above 60% growth control rate) | 1 (Level 1: below 5% growth control rate) | 4 (Level 4: above 50% growth control rate) | 1 (Level 1: below 5% growth control rate) | 10 | 0 | 0 | 3 (Level 3: above 20% growth control rate)
2 | Cn1ncc(C(=O)c2ccc(C(F)(F)F)c(-n3cccn3)c2Cl)c1O [Compound 064] | 10 | 7 (Level 7: above 80% growth control rate) | 7 (Level 7: above 80% growth control rate) | 5 (Level 5: above 60% growth control rate) | 10 | 9 (Level 9: above 95% growth control rate) | 7 (Level 7: above 80% growth control rate) | 3 (Level 3: above 20% growth control rate) | 2 (Level 2: 5%-20% growth control rate)
3 | CCOC(=O)Oc1c(C(=O)c2ccc(C(F)(F)F)c(-n3cccn3)c2Cl)c(C)nn1C [Compound 069] | 10 | 10 | 3 (Level 3: above 20% growth control rate) | 6 (Level 6: above 70% growth control rate) | 10 | 0 | 0 | 0 | 5 (Level 5: above 60% growth control rate)
4 | Cc1nn(C)c(OC(=O)c2cnn(C)c2)c1C(=O)c1ccc(C(F)(F)F)c(-n2cccn2)c1Cl [Compound 070] | 10 | 5 (Level 5: above 60% growth control rate) | 4 (Level 4: above 50% growth control rate) | 6 (Level 6: above 70% growth control rate) | 9 (Level 9: above 95% growth control rate) | 5 (Level 5: above 60% growth control rate) | 3 (Level 3: above 20% growth control rate) | 0 | 3 (Level 3: above 20% growth control rate)
5 | Cn1nc(C2CC2)c(C(=O)c2ccc(C(F)(F)F)c(-n3cccn3)c2Cl)c1O [Compound 073] | 10 | 2 (Level 2: 5%-20% growth control rate) | 5 (Level 5: above 60% growth control rate) | 5 (Level 5: above 60% growth control rate) | 10 | 7 (Level 7: above 80% growth control rate) | 3 (Level 3: above 20% growth control rate) | 1 (Level 1: below 5% growth control rate) | 8 (Level 8: above 90% growth control rate)
6 | CCOc1c(C(=O)Oc2c(C(=O)c3ccc(C(F)(F)F)c(-n4cccn4)c3Cl)c(C3CC3)nn2C)cnn1C [Compound 074] | 10 | 4 (Level 4: above 50% growth control rate) | 4 (Level 4: above 50% growth control rate) | 6 (Level 6: above 70% growth control rate) | 9 (Level 9: above 95% growth control rate) | 10 | 3 (Level 3: above 20% growth control rate) | 1 (Level 1: below 5% growth control rate) | 9 (Level 9: above 95% growth control rate)
7 | CCOC(=O)Oc1c(C(=O)c2ccc(C(F)(F)F)c(-n3ccc(C)n3)c2Cl)c(C)nn1C [Compound 078] | 10 | 10 | 4 (Level 4: above 50% growth control rate) | 7 (Level 7: above 80% growth control rate) | 7 (Level 7: above 80% growth control rate) | 0 | 0 | 0 | 4 (Level 4: above 50% growth control rate)
8 | Cc1cnn(-c2c(C(F)(F)F)ccc(C(=O)c3cnn(C)c3O)c2Cl)c1 [Compound 080] | 7 (Level 7: above 80% growth control rate) | 8 (Level 8: above 90% growth control rate) | 6 (Level 6: above 70% growth control rate) | 5 (Level 5: above 60% growth control rate) | 10 | 7 (Level 7: above 80% growth control rate) | 3 (Level 3: above 20% growth control rate) | 2 (Level 2: 5%-20% growth control rate) | 1 (Level 1: below 5% growth control rate)
9 | CCOC(=O)Oc1c(C(=O)c2ccc(C(F)(F)F)c(-n3cc(C)cn3)c2Cl)c(C)nn1C [Compound 085] | 10 | 10 | 8 (Level 8: above 90% growth control rate) | 9 (Level 9: above 95% growth control rate) | 10 | 2 (Level 2: 5%-20% growth control rate) | 0 | 0 | 6 (Level 6: above 70% growth control rate)
10 | Cc1cnn(-c2c(C(F)(F)F)ccc(C(=O)c3c(C4CC4)nn(C)c3O)c2Cl)c1 [Compound 089] | 10 | 3 (Level 3: above 20% growth control rate) | 1 (Level 1: below 5% growth control rate) | 5 (Level 5: above 60% growth control rate) | 2 (Level 2: 5%-20% growth control rate) | 9 (Level 9: above 95% growth control rate) | 1 (Level 1: below 5% growth control rate) | 0 | 1 (Level 1: below 5% growth control rate)
11 | Cc1cc(C)n(-c2c(C(F)(F)F)ccc(C(=O)c3c(C)nn(C)c3OC(=O)c3cn(C)nc3C)c2Cl)n1 [Compound 094] | 3 (Level 3: above 20% growth control rate) | 2 (Level 2: 5%-20% growth control rate) | 3 (Level 3: above 20% growth control rate) | 1 (Level 1: below 5% growth control rate) | 1 (Level 1: below 5% growth control rate) | 0 | 1 (Level 1: below 5% growth control rate) | 0 | 0
